# Measurements published in patent publication US20240116892A1, “HETEROCYCLIC AMIDE AND UREA COMPOUNDS AS JAK2 INHIBITORS” (Ajax Therapeutics, Inc., priority 2022, published 2024).
# Target: JAK2 (JH1 domain-catalytic, Y1007F, Y1008F) kinase (Homo sapiens (Human), UniProt O60674, Y1007F/Y1008F)
# Experiment: JAK2 JH1 Domain Binding Assay
# Details: qPCR readout
# Protocol: JAK2 (JH1 domain-catalytic, Y1007F, Y1008F) kinase was expressed as N-terminal fusion to the DNA binding domain of NFkB in transiently transfected HEK293 cells and subsequently tagged with DNA for qPCR detection. Streptavidin-coated magnetic beads were treated with biotinylated small molecule ligands for 30 minutes at room temperature to generate affinity resins for kinase assays. The liganded beads were blocked with excess biotin and washed with blocking buffer (SeaBlock (Pierce), 1% BSA, 0.05% Tween 20, 1 mmol/L DTT) to remove unbound ligand and to reduce nonspecific phage binding. Binding reactions were assembled by combining kinases, liganded affinity beads, and test compounds in 1× binding buffer (1× PBS, 0.05% Tween 20, 0.1% BSA, 1 mmol/L DTT). Test compound was prepared as 111× stocks in 100% DMSO and directly diluted into the assay wells. All reactions were performed in polypropylene 384-well plates in a final volume of 0.02 mL. The assay plates were incubated at room temperature with shaking for 1 hour and the affinity beads were washed with wash buffer (1× PBS, 0.05% Tween 20). The beads were then re-suspended in elution buffer (1× PBS, 0.05% Tween 20, 0.5 μmol/L non-biotinylated affinity ligand) and incubated at room temperature with shaking for 30 minutes. The kinase concentration in the eluate was measured by qPCR.
# Chain of JAK2 (JH1 domain-catalytic, Y1007F, Y1008F) kinase (O60674 849-1124 Y1007F/Y1008F): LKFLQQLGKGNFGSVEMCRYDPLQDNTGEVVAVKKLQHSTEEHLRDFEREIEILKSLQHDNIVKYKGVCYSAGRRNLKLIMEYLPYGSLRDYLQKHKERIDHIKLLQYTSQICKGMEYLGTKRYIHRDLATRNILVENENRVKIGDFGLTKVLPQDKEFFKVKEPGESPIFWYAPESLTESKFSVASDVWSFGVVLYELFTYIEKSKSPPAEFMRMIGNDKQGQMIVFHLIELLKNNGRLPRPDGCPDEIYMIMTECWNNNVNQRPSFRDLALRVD
row,Compound,Kd [nM]
1,"CN(C(=O)Nc1cc(C(F)(F)F)cn(C)c1=O)[C@@H]1CCN(c2cnc3[nH]cc(N4CCOCC4)c3n2)CC1(F)F (single isomer, unassigned) [Example I-155-a]",10 to 50
2,"CN(C(=O)Nc1cc(C(F)(F)F)cn(C)c1=O)[C@H]1CCN(c2cnc3[nH]cc(N4CCOCC4)c3n2)CC1(F)F (single isomer, unassigned) [Example I-155-b]",10 to 50
3,"COc1n[nH]c2ncc(N3CC[C@H]4[C@H](C3)OCCN4C(=O)Nc3cc(C(F)(F)F)cn(C)c3=O)cc12 (single isomer, unassigned) [Example I-169-a]",10 to 50
4,"CN(C(=O)Nc1cc(C2CC2)cn([C@H]2CCCOC2)c1=O)C1CCN(c2cnc3[nH]ncc3c2)CC1 (single isomer, unassigned) [Example I-183-a, (S)- or (R)-1-(1-(1H-pyrazolo[3,4-b]pyridin-5-yl)piperidin-4-yl)-3-(5-cyclopropyl-2-oxo-1-(tetrahydro-2H-pyran-3-yl)-1,2-dihydropyridin-3-yl)-1-methylurea]",< 10
5,"CN(C(=O)Nc1cc(C(F)(F)F)cn(C)c1=O)[C@H]1CCN(c2cnc3[nH]ncc3c2)C[C@@H]1F (stereo in doubt) [Example I-61-a, 1-((3S,4S)-3-fluoro-1-(1H-pyrazolo[3,4-b]pyridin-5-yl)piperidin-4-yl)-1-methyl-3-(1-methyl-2-oxo-5-(trifluoromethyl)-1,2-dihydropyridin-3-yl)urea]",< 10
6,"CN(C(=O)Nc1cc(C(F)(F)F)cn(C)c1=O)[C@H]1CCN(c2cnc3[nH]ncc3c2)C[C@H]1F (stereo in doubt) [Example I-62-a, 1-((3R,4S)-3-fluoro-1-(1H-pyrazolo[3,4-b]pyridin-5-yl)piperidin-4-yl)-1-methyl-3-(1-methyl-2-oxo-5-(trifluoromethyl)-1,2-dihydropyridin-3-yl)urea]",< 10
7,"CN(C(=O)Nc1cc(C(F)(F)F)cn(C)c1=O)[C@H]1CCN(c2cnc3[nH]n(C)c(=O)c3c2)CC1F (stereo in doubt) [Example I-90-a, 1-((3R,4S)-3-fluoro-1-(2-methyl-3-oxo-2,3-dihydro-1H-pyrazolo[3,4-b]pyridin-5-yl)piperidin-4-yl)-1-methyl-3-(1-methyl-2-oxo-5-(trifluoromethyl)-1,2-dihydropyridin-3-yl)urea]",10 to 50
8,"Cc1cc(NC(=O)CC2CCN(c3cnccn3)CC2)cc(C(F)(F)F)c1 [Example I-1, N-(3-methyl-5-(trifluoromethyl)phenyl)-2-(1-(pyrazin-2-yl)piperidin-4-yl)acetamide]",1000 to 5000

# Next, values leading:
row,Kd [nM],Compound
1,< 10,"CN1CCN(c2n[nH]c3ncc(N4CC[C@H](N(C)C(=O)Nc5cc(C(F)(F)F)cn(C)c5=O)C(F)(F)C4)cc23)CC1 (single isomer, unassigned) [Example I-154-b, (R)- or (S)-1-(3,3-difluoro-1-(3-(4-methylpiperazin-1-yl)-1H-pyrazolo[3,4-b]pyridin-5-yl)piperidin-4-yl)-1-methyl-3-(1-methyl-2-oxo-5-(trifluoromethyl)-1,2-dihydropyridin-3-yl)urea]"
2,< 10,"CN(C(=O)Nc1cc(C(F)(F)F)cn(C)c1=O)[C@@H]1CC=C(c2cnc3[nH]ncc3n2)CC1 (single isomer, unassigned) [Example I-160-a, (S)- or (R)-1-(4-(1H-pyrazolo[3,4-b]pyrain-5-yl)cyclohex-3-en-1-yl)-1-methyl-3-(2-methyl-2-oxo-5-(trifluoromethyl)-1,2-dihydropyridin-3-yl)urea]"
3,< 10,"CN(C(=O)Nc1cc(C(F)(F)F)cn(C)c1=O)[C@H]1CC=C(c2cnc3[nH]ncc3n2)CC1 (single isomer, unassigned) [Example I-160-b, (S)- or (R)-1-(4-(1H-pyrazolo[3,4-b]pyrain-5-yl)cyclohex-3-en-1-yl)-1-methyl-3-(2-methyl-2-oxo-5-(trifluoromethyl)-1,2-dihydropyridin-3-yl)urea]"
4,< 10,"COc1n[nH]c2ncc(N3CC[C@H]4[C@H](C3)OCCN4C(=O)Nc3cc(C(F)(F)F)cn(C)c3=O)cc12 (single isomer, unassigned) [Example I-169-b]"
